The results in this text go back to ChEMBL document CHEMBL1909046, “DrugMatrix in vitro pharmacology data”.

Chain of Mu-type opioid receptor (P35372 whole entry): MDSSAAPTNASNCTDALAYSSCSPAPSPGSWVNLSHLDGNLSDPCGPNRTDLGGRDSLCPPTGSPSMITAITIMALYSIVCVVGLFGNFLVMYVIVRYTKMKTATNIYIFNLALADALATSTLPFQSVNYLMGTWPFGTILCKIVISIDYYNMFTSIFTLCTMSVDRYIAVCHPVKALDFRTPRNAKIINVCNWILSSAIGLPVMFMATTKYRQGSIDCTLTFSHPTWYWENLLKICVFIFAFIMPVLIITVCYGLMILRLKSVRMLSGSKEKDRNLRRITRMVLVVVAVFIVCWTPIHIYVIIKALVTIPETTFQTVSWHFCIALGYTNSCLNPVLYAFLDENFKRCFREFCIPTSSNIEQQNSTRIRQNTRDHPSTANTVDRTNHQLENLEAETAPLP
Chain of Cytochrome P450 2E1 (P05181 whole entry): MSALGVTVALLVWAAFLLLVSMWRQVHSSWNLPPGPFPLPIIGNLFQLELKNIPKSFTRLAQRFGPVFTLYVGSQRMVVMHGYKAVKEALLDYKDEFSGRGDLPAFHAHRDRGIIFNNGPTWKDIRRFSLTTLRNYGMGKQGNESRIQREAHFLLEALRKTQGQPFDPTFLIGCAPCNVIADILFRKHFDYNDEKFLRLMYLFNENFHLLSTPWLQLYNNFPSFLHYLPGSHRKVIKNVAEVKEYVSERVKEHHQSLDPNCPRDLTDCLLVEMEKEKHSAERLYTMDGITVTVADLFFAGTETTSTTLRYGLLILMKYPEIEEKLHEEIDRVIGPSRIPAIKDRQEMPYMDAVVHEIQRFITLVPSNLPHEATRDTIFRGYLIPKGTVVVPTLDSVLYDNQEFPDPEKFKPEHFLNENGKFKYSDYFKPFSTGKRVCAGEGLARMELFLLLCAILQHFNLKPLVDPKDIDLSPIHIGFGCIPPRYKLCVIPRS

One data set concerns the target Glycine receptor (Rattus norvegicus, UniProt P22771+P24524+P07727+P20781). It counts as cell membranes, Wistar, Spinal cord, Membrane. Note: in other assays of this panel Not Active means under 50% inhibition at 10 µM.
Conditions: not given
As for `COc1cc2c3cc1Oc1cc(ccc1O)C[C@@H]1c4c(cc(OC)c(O)c4Oc4ccc(cc4)C[C@@H]3N(C)CC2)CC[N+]1(C)C.[Cl-]`, the IC50 entry is listed as “Not Active”.
As for `CN(Cc1ccc(C(C)(C)C)cc1)Cc1cccc2ccccc12` [BUTENAFINE], the IC50 result is listed as “Not Active”.
As for `Sc1ncnc2nc[nH]c12` [MERCAPTOPURINE ANHYDROUS], the IC50 result is listed as “Not Active”.
On to `Nc1nc2c(ncn2COCCO)c(=O)[nH]1` [ACYCLOVIR], for which the IC50 entry is given as “Not Active”.
Same read-out and setting: with `c1ccc2c(c1)c1cccc3ccc4cccc2c4c31` [BENZO[E]PYRENE] the entry was “Not Active”.
Regarding `CC(C)(Oc1ccc(Cl)cc1)C(=O)O` [CLOFIBRIC ACID], the IC50 entry is given as “Not Active”.
In the case of `CC1(C)O[C@@H]2C[C@H]3[C@@H]4CCC5=CC(=O)CC[C@]5(C)[C@@]4(F)[C@@H](O)C[C@]3(C)[C@]2(C(=O)CCl)O1` [HALCINONIDE], the IC50 entry is listed as “Not Active”.

The target in another data set is T1, Cytochrome P450 2A6 (Homo sapiens, UniProt P11509). Note: in other assays of this panel Not Active means under 50% inhibition at 10 µM.
T1 sequence (P11509 whole entry): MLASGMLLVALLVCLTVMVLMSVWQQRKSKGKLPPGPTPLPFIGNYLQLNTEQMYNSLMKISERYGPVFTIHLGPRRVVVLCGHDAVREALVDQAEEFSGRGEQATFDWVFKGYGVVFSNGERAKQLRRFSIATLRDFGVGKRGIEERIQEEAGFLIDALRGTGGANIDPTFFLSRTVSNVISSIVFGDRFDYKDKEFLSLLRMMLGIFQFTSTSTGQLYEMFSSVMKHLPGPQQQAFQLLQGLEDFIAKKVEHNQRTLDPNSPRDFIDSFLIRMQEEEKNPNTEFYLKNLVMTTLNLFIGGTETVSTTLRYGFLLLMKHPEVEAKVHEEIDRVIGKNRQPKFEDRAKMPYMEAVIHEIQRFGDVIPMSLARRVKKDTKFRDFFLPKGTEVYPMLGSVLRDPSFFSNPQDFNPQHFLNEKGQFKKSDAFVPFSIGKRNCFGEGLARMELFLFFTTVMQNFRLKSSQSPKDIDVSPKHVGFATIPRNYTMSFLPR
As to conditions: bti-tn-5b1-4.
As to `COc1cc2c3cc1Oc1cc(ccc1O)C[C@@H]1c4c(cc(OC)c(O)c4Oc4ccc(cc4)C[C@@H]3N(C)CC2)CC[N+]1(C)C.[Cl-]`, the IC50 result is given as “Not Active” and the Ki result is given as “Not Active”.
With `CN(Cc1ccc(C(C)(C)C)cc1)Cc1cccc2ccccc12` [BUTENAFINE], the IC50 entry is “Not Active” and the Ki entry was “Not Active”.
`Sc1ncnc2nc[nH]c12` [MERCAPTOPURINE ANHYDROUS]: the IC50 entry is given as “Not Active” and the Ki entry is listed as “Not Active”.
Take `Nc1nc2c(ncn2COCCO)c(=O)[nH]1` [ACYCLOVIR]: the IC50 result was “Not Active” and the Ki result is on record as “Not Active”.
With `c1ccc2c(c1)c1cccc3ccc4cccc2c4c31` [BENZO[E]PYRENE], the IC50 entry was “Not Active” and the Ki result is reported as “Not Active”.
Turning to `CC(C)(Oc1ccc(Cl)cc1)C(=O)O` [CLOFIBRIC ACID], the IC50 entry was “Not Active” and the Ki result is on record as “Not Active”.
On to `CC1(C)O[C@@H]2C[C@H]3[C@@H]4CCC5=CC(=O)CC[C@]5(C)[C@@]4(F)[C@@H](O)C[C@]3(C)[C@]2(C(=O)CCl)O1` [HALCINONIDE], for which the IC50 entry is on record as “Not Active” and the Ki result is given as “Not Active”.

System in the next data set: not listed separately
In words: DRUGMATRIX: GABAA, Chloride Channel, TBOB radioligand binding (ligand: [3H] TBOB). The format is cell membranes, Rattus norvegicus, Wistar, Cerebral cortex, Membrane. As to conditions: Not Active = under 50% inhibition at 10 µM.
Regarding `COc1cc2c3cc1Oc1cc(ccc1O)C[C@@H]1c4c(cc(OC)c(O)c4Oc4ccc(cc4)C[C@@H]3N(C)CC2)CC[N+]1(C)C.[Cl-]`, the IC50 result is given as “Not Active” and the Ki entry is “Not Active”.
As to `CN(Cc1ccc(C(C)(C)C)cc1)Cc1cccc2ccccc12` [BUTENAFINE], the IC50 entry is given as “Not Active” and the Ki entry is on record as “Not Active”.
As for `Sc1ncnc2nc[nH]c12` [MERCAPTOPURINE ANHYDROUS], the IC50 result is “Not Active” and the Ki entry is reported as “Not Active”.
For the compound `Nc1nc2c(ncn2COCCO)c(=O)[nH]1` [ACYCLOVIR], the IC50 result was “Not Active” and the Ki result is “Not Active”.
In the case of `c1ccc2c(c1)c1cccc3ccc4cccc2c4c31` [BENZO[E]PYRENE], the IC50 entry was “Not Active” and the Ki entry was “Not Active”.
Turning to `CC(C)(Oc1ccc(Cl)cc1)C(=O)O` [CLOFIBRIC ACID], the IC50 entry was “Not Active” and the Ki result was “Not Active”.
With `CC1(C)O[C@@H]2C[C@H]3[C@@H]4CCC5=CC(=O)CC[C@]5(C)[C@@]4(F)[C@@H](O)C[C@]3(C)[C@]2(C(=O)CCl)O1` [HALCINONIDE], the IC50 result is “Not Active” and the Ki entry is “Not Active”.

Another data set addresses Mu-type opioid receptor (Homo sapiens, UniProt P35372). In words: DRUGMATRIX: Opiate mu (OP3, MOP) radioligand binding (ligand: [3H] Diprenorphine). The format is cell membranes, CHO-K1, Membrane. Particulars: cho-k1; Not Active = under 50% inhibition at 10 µM.
Turning to `COc1cc2c3cc1Oc1cc(ccc1O)C[C@@H]1c4c(cc(OC)c(O)c4Oc4ccc(cc4)C[C@@H]3N(C)CC2)CC[N+]1(C)C.[Cl-]`, the IC50 entry is listed as “Not Active”.
On the same count and under the same terms, next, `CN(Cc1ccc(C(C)(C)C)cc1)Cc1cccc2ccccc12` [BUTENAFINE]: “Not Active”; `Sc1ncnc2nc[nH]c12` [MERCAPTOPURINE ANHYDROUS]: “Not Active”.
On to `Nc1nc2c(ncn2COCCO)c(=O)[nH]1` [ACYCLOVIR], for which the IC50 entry is recorded as “Not Active”.
The same measure, in the same setting: next, `c1ccc2c(c1)c1cccc3ccc4cccc2c4c31` [BENZO[E]PYRENE]: “Not Active”; `CC(C)(Oc1ccc(Cl)cc1)C(=O)O` [CLOFIBRIC ACID]: “Not Active”; `CC1(C)O[C@@H]2C[C@H]3[C@@H]4CCC5=CC(=O)CC[C@]5(C)[C@@]4(F)[C@@H](O)C[C@]3(C)[C@]2(C(=O)CCl)O1` [HALCINONIDE]: “Not Active”.

System in a further data set: not listed separately
In words: DRUGMATRIX: Potassium Channel [KATP] radioligand binding (ligand: [3H] Glyburide). The format is cell membranes, Membrane. As to conditions: hit-t15; Not Active = under 50% inhibition at 10 µM.
As to `COc1cc2c3cc1Oc1cc(ccc1O)C[C@@H]1c4c(cc(OC)c(O)c4Oc4ccc(cc4)C[C@@H]3N(C)CC2)CC[N+]1(C)C.[Cl-]`, the IC50 result was “Not Active” and the Ki entry is reported as “Not Active”.
Take `CN(Cc1ccc(C(C)(C)C)cc1)Cc1cccc2ccccc12` [BUTENAFINE]: the IC50 entry is recorded as “Not Active” and the Ki entry was “Not Active”.
In the case of `Sc1ncnc2nc[nH]c12` [MERCAPTOPURINE ANHYDROUS], the IC50 entry is recorded as “Not Active” and the Ki result is recorded as “Not Active”.
Turning to `Nc1nc2c(ncn2COCCO)c(=O)[nH]1` [ACYCLOVIR], the IC50 result is “Not Active” and the Ki entry is “Not Active”.
For the compound `c1ccc2c(c1)c1cccc3ccc4cccc2c4c31` [BENZO[E]PYRENE], the IC50 entry is “Not Active” and the Ki result was “Not Active”.
Consider `CC(C)(Oc1ccc(Cl)cc1)C(=O)O` [CLOFIBRIC ACID], for which the IC50 entry is on record as “Not Active” and the Ki result is “Not Active”.
For `CC1(C)O[C@@H]2C[C@H]3[C@@H]4CCC5=CC(=O)CC[C@]5(C)[C@@]4(F)[C@@H](O)C[C@]3(C)[C@]2(C(=O)CCl)O1` [HALCINONIDE], the IC50 entry is “Not Active” and the Ki result was “Not Active”.

The next data set concerns the target T2, Alpha-2C adrenergic receptor (Homo sapiens, UniProt P18825).
T2 sequence (P18825 whole entry): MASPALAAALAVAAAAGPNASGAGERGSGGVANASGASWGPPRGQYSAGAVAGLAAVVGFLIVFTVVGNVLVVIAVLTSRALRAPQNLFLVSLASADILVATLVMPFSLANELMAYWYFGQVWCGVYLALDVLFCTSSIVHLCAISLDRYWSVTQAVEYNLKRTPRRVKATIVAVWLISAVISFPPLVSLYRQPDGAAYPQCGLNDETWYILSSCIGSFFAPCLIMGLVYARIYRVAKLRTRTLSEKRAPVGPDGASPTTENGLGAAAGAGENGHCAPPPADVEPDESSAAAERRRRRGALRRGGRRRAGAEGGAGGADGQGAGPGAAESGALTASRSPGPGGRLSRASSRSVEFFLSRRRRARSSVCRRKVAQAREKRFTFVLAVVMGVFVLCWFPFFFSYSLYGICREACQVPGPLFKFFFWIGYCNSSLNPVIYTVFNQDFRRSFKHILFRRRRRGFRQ
In words: DRUGMATRIX: Adrenergic Alpha-2C radioligand binding (ligand: [3H] MK-912). It counts as cell membranes, Sf9, Membrane. As to conditions: sf9.
`COc1cc2c3cc1Oc1cc(ccc1O)C[C@@H]1c4c(cc(OC)c(O)c4Oc4ccc(cc4)C[C@@H]3N(C)CC2)CC[N+]1(C)C.[Cl-]`: the IC50 entry is recorded as “Not Active”.
Turning to `CN(Cc1ccc(C(C)(C)C)cc1)Cc1cccc2ccccc12` [BUTENAFINE], the IC50 entry is “Not Active”.
For `Sc1ncnc2nc[nH]c12` [MERCAPTOPURINE ANHYDROUS], the IC50 entry is on record as “Not Active”.
On the same count and under the same terms, with `Nc1nc2c(ncn2COCCO)c(=O)[nH]1` [ACYCLOVIR] the entry was “Not Active”.
On to `c1ccc2c(c1)c1cccc3ccc4cccc2c4c31` [BENZO[E]PYRENE], for which the IC50 result was “Not Active”.
Still for that read-out and setting: with `CC(C)(Oc1ccc(Cl)cc1)C(=O)O` [CLOFIBRIC ACID] the entry was “Not Active”.
As to `CC1(C)O[C@@H]2C[C@H]3[C@@H]4CCC5=CC(=O)CC[C@]5(C)[C@@]4(F)[C@@H](O)C[C@]3(C)[C@]2(C(=O)CCl)O1` [HALCINONIDE], the IC50 entry is recorded as “Not Active”.

The target in another data set is Protein phosphatase 3 catalytic subunit alpha (Homo sapiens, UniProt Q08209). Also noted: species or system Escherichia coli.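 Note: inhibition of calcineurin (PP2B) enzyme activity, measured with DiFMUP as the substrate; in other assays of this panel Not Active means under 50% inhibition at 10 µM.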
Conditions: not given
Turning to `COc1cc2c3cc1Oc1cc(ccc1O)C[C@@H]1c4c(cc(OC)c(O)c4Oc4ccc(cc4)C[C@@H]3N(C)CC2)CC[N+]1(C)C.[Cl-]`, the IC50 result is recorded as “Not Active”.
Same read-out and setting: next, `CN(Cc1ccc(C(C)(C)C)cc1)Cc1cccc2ccccc12` [BUTENAFINE]: “Not Active”; `Sc1ncnc2nc[nH]c12` [MERCAPTOPURINE ANHYDROUS]: “Not Active”; `Nc1nc2c(ncn2COCCO)c(=O)[nH]1` [ACYCLOVIR]: “Not Active”.
Still for that read-out and setting: with `c1ccc2c(c1)c1cccc3ccc4cccc2c4c31` [BENZO[E]PYRENE] the entry was “Not Active”.
In the case of `CC(C)(Oc1ccc(Cl)cc1)C(=O)O` [CLOFIBRIC ACID], the IC50 result is given as “Not Active”.
Same read-out and setting: with `CC1(C)O[C@@H]2C[C@H]3[C@@H]4CCC5=CC(=O)CC[C@]5(C)[C@@]4(F)[C@@H](O)C[C@]3(C)[C@]2(C(=O)CCl)O1` [HALCINONIDE] the entry was “Not Active”.

Another data set addresses Cytochrome P450 2E1 (Homo sapiens, UniProt P05181). As to conditions: bti-tn-5b1-4.
On to `COc1cc2c3cc1Oc1cc(ccc1O)C[C@@H]1c4c(cc(OC)c(O)c4Oc4ccc(cc4)C[C@@H]3N(C)CC2)CC[N+]1(C)C.[Cl-]`, for which the IC50 entry is reported as “Not Active” and the Ki result was “Not Active”.
On to `CN(Cc1ccc(C(C)(C)C)cc1)Cc1cccc2ccccc12` [BUTENAFINE], for which the IC50 entry is given as “Not Active” and the Ki result is reported as “Not Active”.
As to `Sc1ncnc2nc[nH]c12` [MERCAPTOPURINE ANHYDROUS], the IC50 entry is “Not Active” and the Ki entry is given as “Not Active”.
Consider `Nc1nc2c(ncn2COCCO)c(=O)[nH]1` [ACYCLOVIR], for which the IC50 entry was “Not Active” and the Ki result is reported as “Not Active”.
`c1ccc2c(c1)c1cccc3ccc4cccc2c4c31` [BENZO[E]PYRENE]: the IC50 entry is on record as “Not Active” and the Ki result is on record as “Not Active”.
With `CC(C)(Oc1ccc(Cl)cc1)C(=O)O` [CLOFIBRIC ACID], the IC50 result was “Not Active” and the Ki result is recorded as “Not Active”.
In the case of `CC1(C)O[C@@H]2C[C@H]3[C@@H]4CCC5=CC(=O)CC[C@]5(C)[C@@]4(F)[C@@H](O)C[C@]3(C)[C@]2(C(=O)CCl)O1` [HALCINONIDE], the IC50 entry is reported as “Not Active” and the Ki result is “Not Active”.
